Results reported in article doi:10.1101/2020.10.11.335026v1, “Acquisition of a type 3 secretion signal in an housekeeping enzyme shaped glycogen metabolism in Chlamydia” (biorxiv, 2020).

Assays:
Format in all cases: biochemical
CpsG (HIS-CpsG) [1] = biological target: T1, CpsG (HIS-CpsG) (Escherichia coli, UniProt P24175); assay: Glc1P conversion with and without cofactor by HPAEC-PAD; conditions: 0.2 mg/mL Glc1,6diP, 0.66 mg/ml Glc1P, 10 mM Tris-HCl pH 8.0, 37 °C, 20 min
T1 construct: gene manB; His-tagged, recombinant from E. coli BL21(DE3), Ni-NTA and size exclusion; tag terminus printed as C-terminal in Methods
T1 sequence (P24175 1-456): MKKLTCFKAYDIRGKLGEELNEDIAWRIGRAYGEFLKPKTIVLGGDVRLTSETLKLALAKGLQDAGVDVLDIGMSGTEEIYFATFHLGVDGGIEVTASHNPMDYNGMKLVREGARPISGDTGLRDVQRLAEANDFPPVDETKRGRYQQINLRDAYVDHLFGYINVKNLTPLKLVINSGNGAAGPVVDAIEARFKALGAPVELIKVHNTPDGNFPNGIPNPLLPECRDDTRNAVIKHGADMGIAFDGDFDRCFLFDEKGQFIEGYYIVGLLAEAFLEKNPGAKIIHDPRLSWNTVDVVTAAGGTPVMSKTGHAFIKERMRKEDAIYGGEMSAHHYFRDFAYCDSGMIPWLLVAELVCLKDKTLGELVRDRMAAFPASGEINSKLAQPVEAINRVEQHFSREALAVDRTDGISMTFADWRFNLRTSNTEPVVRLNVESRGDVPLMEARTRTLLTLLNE

CT815 (HIS-CT815) = biological target: T2, CT815 (HIS-CT815) (Chlamydia trachomatis, UniProt B0B944); assay: conversion to Glc6P by HPAEC-PAD; conditions: 0.66 mg/ml Glc1P, 0.1 mg/mL enzyme, 0.2 mg/mL Glc1,6diP, 10 mM Tris-HCl pH 8.0, 37 °C, 20 min
T2 construct: gene glmM; His-tagged, in pET28a, recombinant from E. coli BL21(DE3), Ni-NTA and size exclusion; tag printed as amino-terminal in Results but C-terminal in Methods
T2 sequence (B0B944 whole entry): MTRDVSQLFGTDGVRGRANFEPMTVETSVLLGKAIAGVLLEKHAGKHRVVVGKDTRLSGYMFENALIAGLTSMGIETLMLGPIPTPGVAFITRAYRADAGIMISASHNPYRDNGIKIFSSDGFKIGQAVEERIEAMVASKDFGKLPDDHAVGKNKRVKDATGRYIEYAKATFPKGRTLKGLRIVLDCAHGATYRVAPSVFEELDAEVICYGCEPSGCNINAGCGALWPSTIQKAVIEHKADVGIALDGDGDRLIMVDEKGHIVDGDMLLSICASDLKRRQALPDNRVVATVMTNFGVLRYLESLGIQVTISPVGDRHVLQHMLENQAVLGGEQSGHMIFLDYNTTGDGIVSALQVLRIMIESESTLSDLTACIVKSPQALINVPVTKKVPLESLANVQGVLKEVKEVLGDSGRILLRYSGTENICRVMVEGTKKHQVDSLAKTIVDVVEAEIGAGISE

CCA00034 (HIS-CCA00034) [2] = biological target: T3, CCA00034 (HIS-CCA00034) (Chlamydia caviae, UniProt Q823R2); assay: conversion to Glc6P by HPAEC-PAD; conditions: 0.66 mg/ml Glc1P, 0.1 mg/mL enzyme, 0.2 mg/mL Glc1,6diP (not required), 10 mM Tris-HCl pH 8.0, 37 °C, 20 min
T3 construct: gene CCA_00344; His-tagged, recombinant from E. coli BL21(DE3), Ni-NTA and size exclusion; tag printed as amino-terminal in Results but C-terminal in Methods; tag not reported cut
T3 sequence (Q823R2 entry or part of it): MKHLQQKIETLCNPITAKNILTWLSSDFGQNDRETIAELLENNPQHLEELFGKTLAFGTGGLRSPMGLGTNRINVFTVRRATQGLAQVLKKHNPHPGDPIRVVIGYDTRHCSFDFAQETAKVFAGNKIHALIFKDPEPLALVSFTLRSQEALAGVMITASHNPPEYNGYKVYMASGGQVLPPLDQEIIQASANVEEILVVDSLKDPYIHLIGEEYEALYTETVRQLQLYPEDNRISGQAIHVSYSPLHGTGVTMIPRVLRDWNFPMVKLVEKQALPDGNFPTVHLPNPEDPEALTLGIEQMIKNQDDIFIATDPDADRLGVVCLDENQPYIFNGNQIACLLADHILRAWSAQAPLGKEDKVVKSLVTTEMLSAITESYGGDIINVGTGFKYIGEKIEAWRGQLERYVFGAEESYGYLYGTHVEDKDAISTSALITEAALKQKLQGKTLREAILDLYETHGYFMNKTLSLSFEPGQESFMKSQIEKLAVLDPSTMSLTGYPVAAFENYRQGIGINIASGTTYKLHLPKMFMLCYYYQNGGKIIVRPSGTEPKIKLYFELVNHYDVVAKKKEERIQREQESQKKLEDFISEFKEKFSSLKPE

CpsG (HIS-CpsG) [3] = biological target: T1, CpsG (HIS-CpsG); assay: conversion to Glc6P by HPAEC-PAD; conditions: 0.66 mg/ml Glc1P, 0.1 mg/mL enzyme, 0.2 mg/mL Glc1,6diP, 10 mM Tris-HCl pH 8.0, 37 °C, 20 min
CCA00034 (HIS-CCA00034) [4] = biological target: T3, CCA00034 (HIS-CCA00034); assay: reverse reaction to Glc1P by HPAEC-PAD; conditions: 0.33 mg/ml Glc6P, 0.1 mg/mL enzyme, 0.2 mg/mL Glc1,6diP, 10 mM Tris-HCl pH 8.0, 37 °C, 20 min

In the case of `O=P(O)(O)OC[C@H]1O[C@H](OP(=O)(O)O)[C@H](O)[C@@H](O)[C@@H]1O` [Glc1,6diP], the “Glc1P conversion with and without cofactor by HPAEC-PAD” value (CpsG (HIS-CpsG) [1]) is reported as “CpsG required the presence of Glc1,6diP for optimal conversion of Glc1P into Glc6P”.

`O=P(O)(O)O[C@H]1O[C@H](CO)[C@@H](O)[C@H](O)[C@H]1O` [Glc1P] was tested, and the “conversion to Glc6P by HPAEC-PAD” value (CT815 (HIS-CT815)) was “only low levels of Glc6P were detected in the presence of HIS-CT815”, the “conversion to Glc6P by HPAEC-PAD” value (CCA00034 (HIS-CCA00034) [2]) was “Incubation of Glc1P in the presence of HIS-CCA00034 led to its full conversion into Glc6P” and the “conversion to Glc6P by HPAEC-PAD” value (CpsG (HIS-CpsG) [3]) was “HIS-CpsG required the presence of Glc1,6diP to convert Glc1P into Glc6P”.

`O=P(O)(O)OC[C@H]1OC(O)[C@H](O)[C@@H](O)[C@@H]1O` (some centres unmarked) [Glc6P] was tested, and the “reverse reaction to Glc1P by HPAEC-PAD” value (CCA00034 (HIS-CCA00034) [4]) was “very low amounts of Glc1P were detected after incubation with HIS-CCA00034 or HIS-CpsG”.
